Assay [1] can be described thus: Inhibition of NaV in mouse Neuro2a cells assessed as suppression of ouabain/veratridine-induced reduction in cell viability measured after 20 hrs by WST8 assay.
Assay [2] is filed under the species Rana temporaria.
Assay [3] is described as follows: Inhibition of NaV in mouse Neuro2a cells assessed as suppression of ouabain/veratridine-induced reduction in cell viability measured after 24 hrs by WST8 assay. Type of assay: cell-based. On the technique in general: Formazan colour is commonly taken as a measure of viable cells.

In the case of `NC1=N[C@H](O)[C@H]2[C@H]3O[C@]4(O)O[C@@H]([C@H](O)[C@@]2(N1)[C@@H]4O)[C@]3(O)CO`, in assay [1], the EC50 amounted to 110 nM. In turn, `NC1=N[C@H](O)[C@H]2[C@H]3O[C@]4(O)O[C@@H]([C@@H](O)[C@@]2(N1)[C@@H]4O)[C@@]3(O)CO` came in with an ED50 in assay [2] of 96 nM. Moreover, in assay [1], the EC50 is 33 nM. Consider `NC1=N[C@H](O)[C@H]2[C@H]3O[C@]4(O)O[C@@H](C[C@@]2(N1)[C@@H]4O)[C@]3(O)CO`, for which the EC50 in assay [3] is 250 nM. Molecule `NC1=N[C@H](O)[C@H]2[C@H]3O[C@]4(O)O[C@@H]([C@@H](O)[C@@]2(N1)[C@@H]4O)[C@]3(O)CO` [TETRODOTOXIN] registered an ED50 in assay [2] of 4.1 nM. Besides, in assay [1], the EC50 was determined as 1.9 nM.

As a reminder, the EC50 is the concentration needed to bring the measured effect to its halfway point.

Source of the values: ChEMBL document CHEMBL4392870, “Isolation and Biological Activity of 8- Epitetrodotoxin and the Structure of a Possible Biosynthetic Shunt Product of Tetrodotoxin, Cep-226A, from the Newt Cynops ensicauda popei” (J Nat Prod, 2019).
